Source: patent publication US9115170B2, “Methods and compositions related to internalizing RGD peptides” (Sanford-Burnham Medical Research Institute, priority 2008, dated 2015)

How the values were obtained:
[1] = tested on: orthotopic 22Rv-1 human prostate cancer xenografts; assay: Confocal microscopy of tumors after injection of peptides, phage and micelles; type: in vivo, mice; conditions: free peptides 2 hrs, phage 15 min, micelles 3 hrs circulation
Method: (§1) Statistical analysis was performed with Student's t-test.

PPC1 cells [2] = assay: In vitro phage binding assay; type: cell-based, human; conditions: for effect of trypsin treatment on binding to PPC1 cells: treatment with trypsin; for phage binding to cells: PPC1 cells, 1 hour at 4° C., phage-displayed peptide
Method: (§2) PPC1 cells were incubated with the phage for 1 hour at 4° C. (A) or 37° C. (B). Phage that bound to the cell surface (A) or those that had internalized into the cells (B) were rescued for titration.
(§3) FIGS. 8A and 8B show the binding (A) and internalization (B) of phage displaying CG7C (control phage), iRGD1, and iRGD1 mutants that carry an alanine substitution for each amino acid (underlined) (SEQ ID NOs:1 and 304-310). PPC1 cells were incubated with the phage for 1 hour at 4° C. (A) or 37° C. (B). Phage that bound to the cell surface (A) or those that internalized into the cells were rescued for titration.
(§4) PPC1 cells were incubated with the phage for 1 hour at 4° C. (A) or 37° C. (B). Phage that bound to the cell surface (A) or those that had internalized into the cells were rescued for titration.
(§5) Suspended cells (10^6 cells in DMEM containing 1% BSA) were incubated with 10^8 pfu/ml of T7 phage for 1 hr at 4° C. The cells were washed 4 times with the binding buffer, lysed with lysogeny broth containing 1% NP-40, and titrated. Phage internalization assays used the same procedure, except that the cells were incubated with phage at 37° C., and that an acidic buffer (500 mM sodium chloride, 0.1 M glycine, 1% BSA, pH 2.5) was substituted for the binding buffer in the second wash. Inhibitors of binding and internalization were added 20 min prior to incubation with phage. Non-infectious phage were prepared by treating phage with UV for 8 min in DMEM containing 1% BSA. The resulting UV-inactivated phage particles expressing about 200 peptides per particle were used as multivalent inhibitors. Free synthetic peptides, mouse antibodies against human α1, α2, αvβ3, αvβ5, α5β1, α4, or αv integrins and integrin subunits (Chemicon), goat anti-rat neuropilin-1 (R&D Systems, Minneapolis, Minn.), with mouse and a goat IgG isotype controls (Abcam) were also tested.

αv integrins = conditions: Koivunen et al. 1993, 1995; cited from earlier work
PPC1 cells [3] = assay: In vitro phage internalization assay; type: cell-based, human; conditions: for phage internalization into cells: 1 hour at 37° C., acid wash, phage-displayed peptide
Method: as §2, §3, §4
To assess the internalization, the phage that bound to the cell surface were removed by washing the cells with acid buffer before phage titration. […] Statistical analysis was performed with Student's t-test. n=3, error bars represent s.d.
Mice were maintained in accordance with institutional guidelines and the animal experiments were approved by the Animal Research Committees at University of California, Santa Barbara and San Francisco. We used transgenic tumor mice (Bardeesy and DePinho, (2002); Arbeit et al., Progressive squamous epithelial neoplasia in K14-human papillomavirus type 16 transgenic mice. J. Virol. 68, 4358-4368 (1994); Hanahan, Heritable formation of pancreatic β-cell tumors in transgenic mice expressing recombinant insulin/simian virus 40 oncogenes. Nature 315, 115-122 (1985)) and xenograft tumors generated by injecting BALB/c nude mice (Harlan Sprague Dawley, Indianapolis, Ind.) with 10^6 human cancer cells orthotopically, intracardiacly or into the brain and tibia. […] Phage homing studies in vivo and cell binding studies in vitro (Zhang et al., (2006)), immunofluorescence (Karmali et al. (2008)) and flow cytometry (Sugahara et al., Hyaluronan oligosaccharides induce CD44 cleavage and promote cell migration in CD44-expressing tumor cells. J. Biol. Chem. 278, 32259-32265 (2003)) were done as described. Whole body imaging was performed 3 hrs after injecting the Cy7-labelled micelles with the Odyssey Infrared Imaging System (LI-COR Biosciences, Lincoln, Nebr.). In phage internalization assays, the cells were treated with 10^9 plaque forming units (pfu) of phage for 1 hr at 37° C., washed with an acidic buffer (glycine-HCl, pH 2.5) to remove and inactivate phage bound to the cell surface, and lysed for phage titration. Peptide internalization was studied by incubating cells with 20 μM of FAM-labelled peptide for 90 min at 37° C. […] To inhibit the binding and/or internalization of the phage, synthetic peptides or phage rendered non-infectious by UV-irradiation were added to the cells 20 min before incubation with the test phage. FAM-labelled peptides in tissues were quantified by measuring the fluorescence with Image J software. Student's t-test and one-way analysis of variance (ANOVA) followed by a suitable post hoc t-test were used for statistical analysis (Table 3).
as §5, with “Free synthetic peptides, mouse antibodies against human α1, α2, αvβ3, αvβ5, α5β1, α4, or αv integrins and integrin subunits (Chemicon), goat anti-rat neuropilin-1 (R&D Systems, Minneapolis, Minn.), with mouse and a goat IgG isotype controls (Abcam) were also tested.” left out

PPC1 cells [4] = assay: Confocal microscopy of cells incubated with phage; type: cell-based, human
From the text: Phage bound to the cell surface were removed by washing the cells with a acidic buffer, and internalized phage were rescued and titrated.
The cells were stained for phage, neuropilin-1, and nuclei. The right panel is a high magnification view of the dotted area in the left panel. […] In almost all tumor ducts examined, αv integrins were positive. […] Scale bars=50 μm.
The cells were stained for phage (arrowed), neuropilin-1 (distal and flanking), and nuclei (central mass). The right panel of […] (SEQ ID NO:298) phage is a high magnification view of the dotted area in the left panel. […] Scale bars=10 μm.
Tissue sections were processed as described (Karmali et al. (2008)). Cells (2×10^5 cells) were grown on collagen I-coated coverslips (BD Biosciences, San Jose, Calif.) overnight, and incubated with 10^8 pfu/ml of T7 phage for 30 min. The cells were fixed in 4% paraformaldehyde, and stained with antibodies and DAPI (Molecular Probes, Eugene, Oreg.). The primary antibodies were rat anti-mouse CD31 monoclonal antibody (BD Biosciences), and rabbit anti-human αv integrin (Chemicon, Temecula, Calif.), rabbit anti-human neuropilin-1 (Chemicon), mouse anti-human neuropilin-1 (Miltenyi Biotec, Auburn, Calif.), and rabbit anti-T7 phage polyclonal antibodies. […]

PPC1 cells [5] = assay: Inhibition of iRGD phage internalization into PPC1 cells; type: cell-based, human; conditions: 37° C.; inhibitor added before test phage
Method: (§6) Phage that bound to the cell surface were titered. B, PPC1 cells were treated as described in A except that they were co-incubated with iRGD1 or CG7C phage at 37° C. The internalized phage were rescued for titering as described in the legend for FIG. 5A.
(§7) A, PPC1 cells were pre-treated with or without series of anti-integrin antibodies, or with normal mouse IgG as a control, for 30 min at 4° C., followed by incubation with iRGD1 phage or CG7C control phage for 1 hour at 4° C. (A) or 37° C. (B). Phage that bound to the cell surface (A) or those that internalized into the cells (B) were rescued and titrated.
(§8) Statistical analyses were performed with ANOVA (a, b, d) or Student's t-test (c, e).
(§9) Suspended cells (10^6 cells in DMEM containing 1% BSA) were incubated with 10^8 pfu/ml of T7 phage for 1 hr at 4° C. The cells were washed 4 times with the binding buffer, lysed with lysogeny broth containing 1% NP-40, and titrated. Phage internalization assays used the same procedure, except that the cells were incubated with phage at 37° C., and that an acidic buffer (500 mM sodium chloride, 0.1 M glycine, 1% BSA, pH 2.5) was substituted for the binding buffer in the second wash. Inhibitors of binding and internalization were added 20 min prior to incubation with phage. Non-infectious phage were prepared by treating phage with UV for 8 min in DMEM containing 1% BSA. […]

M21 cells = assay: CRGDK phage binding and internalization, M21 cells; type: cell-based, human
Method: as §8, §5

PPC1 cells [6] = assay: Inhibition of iRGE phage internalization within PPC1 cells; type: cell-based, human; conditions: non-infectious phage as inhibitor
Method: as §8, §5

[7] = tested on: pancreatic ductal adenocarcinoma (PDAC) tumors; assay: In vivo homing of FAM-labelled peptide to PDAC tumors; set-up: species or system mice; conditions: for effect of excess unlabelled peptide on accumulation of FAM-iRGD in tumors: 10-fold excess injected 30 min before FAM-iRGD
Method: FIGS. 3A and 3B show tumor homing of iRGD1 peptide into murine pancreatic carcinoma. A, 200 μg of […] iRGD1 peptide was injected through the tail vein into transgenic mice with pancreatic ductal adenocarcinoma (PDAC) and the peptide was allowed to circulate for 4.5 hrs. B, An excess of non-labeled iRGD1 (2 mg/mouse) was injected into the PDAC mice 30 min prior to the injection of the […] iRGD1 peptide as described in A. Shown are harvested organs observed under UV light (left) and white light (right).
Approximately 200 μg of FAM-iRGD1 was injected into mice bearing PDACs and allowed to circulate for 15 min (A), 30 min (B), 2 hrs (C) and 4.5 hrs (D). The nuclear staining with DAPI and vascular endothelial cell staining with an anti-CD31 antibody, respectively are shown. Note that at 15 (A) to 30 min (B) post-injection of FAM-iRGD1, the dye stays in the vessels (arrows) or in the cells surrounding the vessels (A, arrowheads in window at the right upper corner), but no vascular staining with the peptides is observed after 2 hrs (C, arrow) or 4.5 hrs (D, arrow). At 30 min post peptide injection, the peptide fluorescence appears in tumor glands (B, main panel and upper right corner inset); some individual cells within the tumor are strongly positive after 2 hrs (C, asterisks) and 4.5 hrs (D, asterisk).
as §1
Approximately 200 μg of […] iRGD1 peptide (FAM-iRGD1) was injected through the tail vein into immuno-deficient mice bearing xenograft of PPC1 human prostate carcinoma, MIA PaCa-2 human pancreatic carcinoma, or MDA-MB-435 human breast carcinoma and was allowed to circulate for 4.5 hrs (FIG. 2). […] Confocal microscopy of PDAC tumor sections from animals injected with FAM-iRGD1 indicated time-dependent in vivo homing dynamics for this peptide. […] The peptide fluorescence associated with the tumors cells was condensed into the perinuclear area of the tumor cells (FIGS. 4C and 4D, asterisks).

PPC1 cells [8] = assay: Inhibition of iRGD phage binding to PPC1 cells; type: cell-based, human; conditions: 4° C.; inhibitor added before test phage
Method: as §6, §7, §9

M21 human melanoma cells = assay: iRGD phage binding to M21 cells; type: cell-based
Method: as §5

PPC1 cells [9] = assay: Inhibition of trypsin-treated iRGD phage binding to PPC1 cells; type: cell-based, human; conditions: 4° C.; non-infectious phage as inhibitor
Method: as §8, §5

PPC1 cells [10] = assay: Inhibition of CRGDK phage binding to PPC1 cells; type: cell-based, human
Method: as §8, §5

In the case of CDCRGDCFC [RGD-4C], the “distribution within tumor (confocal microscopy)” value [1] is listed as “accumulated only in and around tumor blood vessels”, the “effect of trypsin treatment on binding to PPC1 cells” value (PPC1 cells [2]) is listed as “no effect” and the “affinity for αv integrins” value (αv integrins) is listed as “strong affinity”.
With CRG [CRG phage] the “phage binding to cells” value (PPC1 cells [2]) was “did not” and the “phage internalization into cells” value (PPC1 cells [3]) was “did not”.
In the case of CRGD [CRGD phage], the “phage binding to cells” value (PPC1 cells [2]) is reported as “did not” and the “phage internalization into cells” value (PPC1 cells [3]) is reported as “did not”.
In the case of CRGDC, the “distribution within tumor (confocal microscopy)” value [1] is listed as “accumulated only in and around tumor blood vessels”, the “effect of trypsin treatment on binding to PPC1 cells” value (PPC1 cells [2]) is listed as “no effect” and the “affinity for αv integrins” value (αv integrins) is listed as “strong affinity”.
With CRGDGGPDC the “co-localization with neuropilin-1 (confocal microscopy)” value (PPC1 cells [4]) was “did not co-localize” and the “internalization into cells (confocal microscopy)” value (PPC1 cells [4]) was “nor did they internalize”.
For CRGDK [CRGDK phage], the “phage binding to cells” value (PPC1 cells [2]) was “bound to”, the “internalization relative to iRGD phage” value (PPC1 cells [3]; 37° C.) was “more efficiently than iRGD phage” and the “phage internalization into cells” value (PPC1 cells [3]) was “internalized”. For the same substance, the “inhibition of iRGD phage internalization into PPC1 cells” value (PPC1 cells [5]) was “blocked”, the “binding to M21 cells with different αv integrin expression levels” value (M21 cells) was “binds similarly” and the “phage binding to M21 cells with minimal expression of neuropilin-1” value (M21 cells) was “did not substantially bind”. For the same substance, the “phage internalization into M21 cells with minimal expression of neuropilin-1” value (M21 cells; 1 hour at 37° C.) was “did not substantially bind to or internalize”, the “increase of binding by forced expression of neuropilin-1” value (M21 cells; M21 cells transfected with neuropilin-1 cDNA) was 3.5 fold and the “increase of internalization by forced expression of neuropilin-1” value (M21 cells; M21 cells transfected with neuropilin-1 cDNA, not shown) was 3.5 fold. The “internalization relative to iRGD phage” value (M21 cells; M21 cells, 1 hour at 37° C.) was “reversed” and the “inhibition of iRGE phage internalization within PPC1 cells” value (PPC1 cells [6]) was “inhibited the internalization”.
For CRGDKG [CRGDKG phage], the “phage binding to cells” value (PPC1 cells [2]) was “bound” and the “phage internalization into cells” value (PPC1 cells [3]) was “internalized”.
In the case of CRGDKGPDC [iRGD1], the “effect of excess unlabeled peptide on accumulation of FAM-iRGD1 in PDAC tumors” value ([7]; 2 mg/mouse 30 min prior to FAM-iRGD1) is reported as “inhibited the accumulation”, the “effect of excess unlabelled peptide on accumulation of FAM-iRGD in tumors” value [7] is reported as “greatly reduced” and the “inhibition of iRGD phage binding to PPC1 cells” value (PPC1 cells [8]) is reported as “inhibited in a dose-dependent manner”. The “binding to M21 cells that express both αvβ3 and αvβ5” value (M21 human melanoma cells) was “bound” and the “binding to M21 variants lacking expression of αvβ3 and αvβ5” value (M21 human melanoma cells) was “did not”.
With CRGDKGPEC [iRGD3] the “phage binding to cells” value (PPC1 cells [2]) was “similar” and the “phage internalization into cells” value (PPC1 cells [3]) was “similar”.
In the case of CRGDRGPDC [iRGD2], the “phage binding to cells” value (PPC1 cells [2]) is reported as “similar” and the “phage internalization into cells” value (PPC1 cells [3]) is reported as “similar”.
With CRGEKGPDC [iRGE, reference compound] the “effect of excess unlabelled peptide on accumulation of FAM-iRGD in tumors” value [7] was “did not have the same effect”.
With RPARPAR [RPARPAR phage] the “inhibition of iRGD phage internalization into PPC1 cells” value (PPC1 cells [5]) was “blocked”, the “inhibition of binding of trypsin-treated iRGD phage” value (PPC1 cells [9]) was “blocked” and the “inhibition of CRGDK phage binding to PPC1 cells” value (PPC1 cells [10]) was “dose-dependently inhibited”. The “inhibition of iRGE phage internalization within PPC1 cells” value (PPC1 cells [6]) was “inhibited the internalization”.
